Literature values, collected in patent US20080021016A1, “Combined Pharmaceutical Composition for the Inhibition of the Decline of Cognitive Functions” (priority 2004, published 2008).

Key:
[1] = single oral dose of 3 mg/kg sc.
[2] = 10 and 30 mg/kg after oral treatment
central 5-HT2A receptors = central 5-HT2A receptors (Homo sapiens, UniProt P28223)
central 5-HT2C receptors = target: T1, central 5-HT2C receptors (Homo sapiens, UniProt P28335)
T1 sequence (P28335 33-458): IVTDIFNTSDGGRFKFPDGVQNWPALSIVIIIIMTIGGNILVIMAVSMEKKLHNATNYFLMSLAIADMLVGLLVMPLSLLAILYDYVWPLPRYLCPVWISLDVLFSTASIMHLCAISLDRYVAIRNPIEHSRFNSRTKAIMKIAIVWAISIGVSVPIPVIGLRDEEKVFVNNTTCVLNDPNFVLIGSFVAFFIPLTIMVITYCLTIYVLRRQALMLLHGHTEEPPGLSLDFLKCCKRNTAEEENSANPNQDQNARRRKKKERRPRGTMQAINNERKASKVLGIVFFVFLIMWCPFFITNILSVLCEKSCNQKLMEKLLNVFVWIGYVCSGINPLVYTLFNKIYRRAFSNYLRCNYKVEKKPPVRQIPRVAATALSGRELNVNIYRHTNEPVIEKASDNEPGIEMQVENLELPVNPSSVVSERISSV

[3] = single 0.7 mg/kg oral treatment
[4] = 1 and 10 mg/kg after oral administration

Chain of central 5-HT2A receptors (P28223 whole entry): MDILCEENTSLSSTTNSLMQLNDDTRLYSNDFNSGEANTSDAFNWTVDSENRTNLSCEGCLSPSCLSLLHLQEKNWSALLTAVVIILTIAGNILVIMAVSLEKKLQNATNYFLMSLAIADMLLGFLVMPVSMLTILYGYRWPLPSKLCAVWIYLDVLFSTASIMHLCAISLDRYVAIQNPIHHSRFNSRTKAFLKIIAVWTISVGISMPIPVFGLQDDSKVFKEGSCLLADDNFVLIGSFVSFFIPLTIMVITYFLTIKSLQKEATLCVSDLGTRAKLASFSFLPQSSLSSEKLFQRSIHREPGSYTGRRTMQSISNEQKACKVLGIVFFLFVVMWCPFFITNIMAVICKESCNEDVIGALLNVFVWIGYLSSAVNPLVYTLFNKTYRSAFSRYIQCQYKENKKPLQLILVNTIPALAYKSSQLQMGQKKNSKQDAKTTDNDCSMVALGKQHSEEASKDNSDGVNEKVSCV

(1R,2S,4R)-(-)-2-[N,N-(dimethylaminoethoxy)]-2-phenyl-1,7,7-trimethylbicyclo[2.2.1]heptane [deramciclane]
activity in the light-dark model [1]: active
activity in the marble burying model [2]: active
binding to central 5-HT2A receptors (central 5-HT2A receptors): significantly bound
binding to central 5-HT2C receptors (central 5-HT2C receptors): significantly bound
time spent with social interactions [3]: increased the time spent with social interactions
activity in the Vogel punished drinking test [4]: active
